Assay results taken from patent US20190105337A1, “METHODS OF TREATING BACTERIAL INFECTIONS” (priority 2015, published 2019).

Assays:
[1] = Example 3: adverse events during the multiple dose phase; format: in vivo, human
Protocol: All infusions were administered over 3 hours. Intensive plasma and urine PK sampling was obtained after dosing and assayed using validated HPLC/MS methods.
Table 7 summarizes the number (%) of subjects with at least one treatment emergent AE and number of adverse events during the multiple dose phase. […] All AEs, except 2 were mild or moderate in severity. […] There is no evidence that the addition of Compound I changed the AE profile of meropenem.

[2] = system: P. aeruginosa strains; format: cell-based, Pseudomonas aeruginosa
Protocol: The pharmacokinetics simulation was based on data from the clinical study disclosed in Example 2.
In Vitro PK-PD Model: Six medium sized hollow-fiber cartridges (FiberCell Systems) were used per experiment. Three strains studied in duplicate were used for each experiment. Log-phase cells were inoculated and incubated for 2 hours prior to the start of treatment to achieve about 10^8 CFU/mL. Target PK parameters are listed in Tables E and F. The exposures were based on the published literatures disclosed in Example 2. Samples were collected from the central compartment for the determination of drug concentrations over a 32 hour period and were analyzed using an LC-MS/MS method.

## C[C@@H](O)[C@H]1C(=O)N2C(C(=O)O)=C(S[C@@H]3CN[C@H](C(=O)N(C)C)C3)[C@H](C)[C@H]12 [meropenem, Meropenem]
[1]; Pooled 2 g Meropenem
  AEs, Number of Events: [24]
  Moderate or Severe AEs, N subjects: 0
  Subjects with at least one Treatment Emergent AE, %: 80%
[1]; Pooled Meropenem (1 and 2 g)
  AEs, Number of Events: [67]
  Moderate or Severe AEs, % subjects: 24%
  Moderate or Severe AEs, N subjects: 5
  Moderate or Severe AEs, Number of Events: [5]
  Subjects with at least one Treatment Emergent AE, %: 95%
[1]; alone or in combination
  Mild nausea: observed only in the subjects who received meropenem 2 g
[2]
  efficacy, number of strains: effective against 2 out of 3 strains
[2]; P. aeruginosa PAM3377, human equivalent 2 g q8h by 3 hour infusion
  Change in Log CFU over 32 hours: 3.7 Log CFU
